Experimental data as given in patent US9000166B2, “Metal complexes” (Merck Patent GmbH, priority 2005, dated 2015).

Experiment: Solubility in various solvents at T=25° C.
Format: physicochemical
Description: Excellent solubility of the complex is found in many common organic solvents, even in polar protic solvents, such as ethanol and ethanol/water mixtures. As comparison in accordance with the prior art, the solubility of fac-tris[2-(2-pyridinyl-κN)phenyl-κC]iridium(III) (IrPPy) is indicated.

Substance: fac-Tris[2-(2-pyridinyl-κN)-5-(tri-n-butylphosphonium)phenyl)-κC]iridium(III) tribromide [Example 1]
- Solubility (Acetone): unlimited
- Solubility (Chloroform): unlimited
- Solubility (DMF): unlimited
- Solubility (DMSO): unlimited
- Solubility (Dichloromethane): unlimited
- Solubility (Ethanol): 134.0 mg/mL
- Solubility (Hexane): >1.0 mg/mL
- Solubility (NMP): unlimited
- Solubility (Toluene): unlimited
- Solubility (Water): 11.5 mg/mL
- Solubility (Water/ethanol (1:1, v,v)): 43.0 mg/mL
